Assay results taken from patent US12077503B2, “Substituted cyclic amides and their use as herbicides” (FMC CORPORATION, priority 2015, dated 2024).

What was measured:
Type in all cases: in vivo
[1] = system: giant foxtail (Setaria faberii); assay: Test A preemergence; conditions: Setaria faberi, pre-emergence, 240 h, 0 to 100 scale where 0 is no effect and 100 is complete control, read-out: Foxtail, Giant plant response rating; for pest or weed control at 31 g/ha: 31 g ai/ha, Preemergence; for pest or weed control at 125 g/ha: 125 g ai/ha, preemergence, visual injury rating, approximately 10 d
Outline: (§1)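 Greenhouse, ~10 d after spray; visual injury vs untreated controls, 0 = no effect, 100 = complete control. Preemergence: directed soil spray over planted seeds. Postemergence: plants 2–10 cm, 1–2 leaf stage. Loam/sand blend. Compound in non-phytotoxic solvent with surfactant.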

[2] = system: barnyardgrass (Echinochloa crus-galli); assay: Test A preemergence; conditions: Echinochloa crus-galli, pre-emergence, 240 h, 0 to 100 scale where 0 is no effect and 100 is complete control, read-out: Barnyardgrass plant response rating; for pest or weed control at 31 g/ha: 31 g ai/ha, Preemergence; for pest or weed control at 125 g/ha: 125 g ai/ha, preemergence, visual injury rating, approximately 10 d
Outline: as §1

Kochia (Kochia scoparia) [3] = assay: Test A preemergence; conditions: Bassia scoparia, pre-emergence, 240 h, 0 to 100 scale where 0 is no effect and 100 is complete control, read-out: Kochia plant response rating; for pest or weed control at 31 g/ha: 31 g ai/ha, Preemergence; for pest or weed control at 125 g/ha: 125 g ai/ha, preemergence, visual injury rating, approximately 10 d
Outline: as §1

[4] = system: pigweed (Amaranthus retroflexus); assay: Test A preemergence; conditions: Amaranthus retroflexus, pre-emergence, 240 h, 0 to 100 scale where 0 is no effect and 100 is complete control, read-out: Pigweed plant response rating; for pest or weed control at 31 g/ha: 31 g ai/ha, Preemergence; for pest or weed control at 125 g/ha: 125 g ai/ha, preemergence, visual injury rating, approximately 10 d
[5] = system: ryegrass, Italian (Italian ryegrass, Lolium multiflorum); assay: Test A preemergence; conditions: Lolium multiflorum, pre-emergence, 240 h, 0 to 100 scale where 0 is no effect and 100 is complete control, read-out: Ryegrass, Italian plant response rating; for pest or weed control at 31 g/ha: 31 g ai/ha, Preemergence; for pest or weed control at 125 g/ha: 125 g ai/ha, preemergence, visual injury rating, approximately 10 d
Outline: as §1

[6] = system: ragweed (common ragweed, Ambrosia elatior); assay: Test A preemergence; conditions: Ambrosia artemisiifolia, pre-emergence, 240 h, 0 to 100 scale where 0 is no effect and 100 is complete control, read-out: Ragweed plant response rating; for pest or weed control at 31 g/ha: 31 g ai/ha, Preemergence; for pest or weed control at 125 g/ha: 125 g ai/ha, preemergence, visual injury rating, approximately 10 d
Outline: as §1

[7] = system: blackgrass (Alopecurus myosuroides); assay: Test A postemergence; conditions: Alopecurus myosuroides, post-emergence, 240 h, Postemergence, read-out: Blackgrass plant response rating (0 to 100 scale); for pest or weed control at 125 g/ha: 125 g ai/ha, visual rating about 10 d after treatment; for pest or weed control at 31 g/ha: 31 g ai/ha, 0 is no effect, 100 is complete control
Outline: as §1

corn (Zea mays) = assay: Test A postemergence; conditions: Zea mays, post-emergence, 240 h, Postemergence, read-out: Corn plant response rating (0 to 100 scale); for plant injury at 125 g/ha: 125 g ai/ha, visual rating about 10 d after treatment; for plant injury at 31 g/ha: 31 g ai/ha, 0 is no effect, 100 is complete control
Outline: as §1

[8] = system: giant foxtail (Setaria faberii); assay: Test A postemergence; conditions: Setaria faberi, post-emergence, 240 h, Postemergence, read-out: Foxtail, Giant plant response rating (0 to 100 scale); for pest or weed control at 125 g/ha: 125 g ai/ha, visual rating about 10 d after treatment; for pest or weed control at 31 g/ha: 31 g ai/ha, 0 is no effect, 100 is complete control
Outline: as §1

[9] = system: barnyardgrass (Echinochloa crus-galli); assay: Test A postemergence; conditions: Echinochloa crus-galli, post-emergence, 240 h, Postemergence; for pest or weed control at 125 g/ha: 125 g ai/ha, visual rating about 10 d after treatment, read-out: Barnyardgrass plant response rating (0 to 100 scale, 0 no effect, 100 complete control); for pest or weed control at 31 g/ha: 31 g ai/ha, 0 is no effect, 100 is complete control, read-out: Barnyardgrass plant response rating (0 to 100 scale)
Outline: as §1

Kochia (Kochia scoparia) [10] = assay: Test A postemergence; conditions: Bassia scoparia, post-emergence, 240 h, Postemergence, read-out: Kochia plant response rating (0 to 100 scale); for pest or weed control at 125 g/ha: 125 g ai/ha, visual rating about 10 d after treatment; for pest or weed control at 31 g/ha: 31 g ai/ha, 0 is no effect, 100 is complete control
Outline: as §1

[11] = system: wheat (Triticum aestivum); assay: Test A postemergence; conditions: Triticum aestivum, post-emergence, 240 h, Postemergence, read-out: Wheat plant response rating (0 to 100 scale); for plant injury at 125 g/ha: 125 g ai/ha, visual rating about 10 d after treatment; for plant injury at 31 g/ha: 31 g ai/ha, 0 is no effect, 100 is complete control
Outline: as §1

[12] = system: Galium (catchweed bedstraw, Galium aparine); assay: Test A postemergence; conditions: Galium, post-emergence, 240 h, Postemergence, read-out: Galium plant response rating (0 to 100 scale); for pest or weed control at 125 g/ha: 125 g ai/ha, visual rating about 10 d after treatment; for pest or weed control at 31 g/ha: 31 g ai/ha, 0 is no effect, 100 is complete control
Outline: as §1

[13] = system: pigweed (Amaranthus retroflexus); assay: Test A postemergence; conditions: Amaranthus retroflexus, post-emergence, 240 h, Postemergence, read-out: Pigweed plant response rating (0 to 100 scale); for pest or weed control at 125 g/ha: 125 g ai/ha, visual rating about 10 d after treatment; for pest or weed control at 31 g/ha: 31 g ai/ha, 0 is no effect, 100 is complete control
Outline: as §1

[14] = system: ryegrass, Italian (Italian ryegrass, Lolium multiflorum); assay: Test A postemergence; conditions: Lolium multiflorum, post-emergence, 240 h, Postemergence, read-out: Ryegrass, Italian plant response rating (0 to 100 scale); for pest or weed control at 125 g/ha: 125 g ai/ha, visual rating about 10 d after treatment; for pest or weed control at 31 g/ha: 31 g ai/ha, 0 is no effect, 100 is complete control
Outline: as §1

[15] = system: ragweed (common ragweed, Ambrosia elatior); assay: Test A postemergence; conditions: Ambrosia artemisiifolia, post-emergence, 240 h, Postemergence, read-out: Ragweed plant response rating (0 to 100 scale); for pest or weed control at 125 g/ha: 125 g ai/ha, visual rating about 10 d after treatment; for pest or weed control at 31 g/ha: 31 g ai/ha, 0 is no effect, 100 is complete control
Outline: as §1

[16] = system: ducksalad (Heteranthera limosa); assay: Test B flooded paddy test; conditions: Heteranthera limosa, 250 g ai/ha, Flood; 0 to 100 scale where 0 is no effect and 100 is complete control; read-out: Ducksalad plant response rating
Outline: (§2)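 Plants at 2-leaf stage flooded to 3 cm above soil, with compounds applied directly to paddy water and that depth maintained. Plants kept in greenhouse 13–15 d. Visual rating versus controls on a 0 (no effect) to 100 (complete control) scale.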

[17] = system: barnyardgrass (Echinochloa crus-galli); assay: Test B flooded paddy test; conditions: Echinochloa crus-galli, 250 g ai/ha, Flood; 0 to 100 scale where 0 is no effect and 100 is complete control; read-out: Barnyardgrass plant response rating
Outline: as §2

[18] = system: sedge, umbrella (small-flower umbrella sedge, Cyperus difformis); assay: Test B flooded paddy test; conditions: Cyperus difformis, 250 g ai/ha, Flood; 0 to 100 scale where 0 is no effect and 100 is complete control; read-out: Sedge, Umbrella plant response rating
Outline: as §2

rice (Oryra sativa) = assay: Test B flooded paddy test; conditions: Oryza sativa, 250 g ai/ha, Flood; 0 to 100 scale where 0 is no effect and 100 is complete control; read-out: Rice plant response rating
Outline: as §2

SMILES	pest or weed control at 31 g/ha [1]	pest or weed control at 125 g/ha [1]	pest or weed control at 31 g/ha [2]	pest or weed control at 125 g/ha [2]	pest or weed control at 31 g/ha (Kochia (Kochia scoparia) [3])	pest or weed control at 125 g/ha (Kochia (Kochia scoparia) [3])	pest or weed control at 31 g/ha [4]	pest or weed control at 125 g/ha [4]	pest or weed control at 31 g/ha [5]	pest or weed control at 125 g/ha [5]	pest or weed control at 31 g/ha [6]	pest or weed control at 125 g/ha [6]	pest or weed control at 125 g/ha [7]	pest or weed control at 31 g/ha [7]	plant injury at 125 g/ha (corn (Zea mays))	plant injury at 31 g/ha (corn (Zea mays))	pest or weed control at 125 g/ha [8]	pest or weed control at 31 g/ha [8]	pest or weed control at 125 g/ha [9]	pest or weed control at 31 g/ha [9]	other results
Cc1ccc([C@H]2CN(C)C(=O)[C@@H]2C(=O)Nc2c(F)c(F)c(F)c(F)c2F)cc1 [Compound 1292]	70%	80%	0%	50%	60%	60%	40%	40%	0%	40%	0%	0%	0%	0%	0%	0%	0%	0%	0%	0%	pest or weed control at 125 g/ha (Kochia (Kochia scoparia) [10]): 0%; pest or weed control at 31 g/ha (Kochia (Kochia scoparia) [10]): 0%; plant injury at 125 g/ha [11]: 0%; plant injury at 31 g/ha [11]: 0%; pest or weed control at 125 g/ha [12]: 0%; pest or weed control at 31 g/ha [12]: 0%; pest or weed control at 125 g/ha [13]: 0%; pest or weed control at 31 g/ha [13]: 0%; pest or weed control at 125 g/ha [14]: 0%; pest or weed control at 31 g/ha [14]: 0%; pest or weed control at 125 g/ha [15]: 0%; pest or weed control at 31 g/ha [15]: 0%; pest or weed control at 250 g/ha [16]: 0%; pest or weed control at 250 g/ha [17]: 0%; pest or weed control at 250 g/ha [18]: 0%; pest or weed control at 250 g/ha (rice (Oryra sativa)): 15%
O=C(Nc1ccccc1F)C1C(=O)N(CC(F)F)CC1c1cccc(C(F)(F)F)c1 (stereo not drawn) [Compound 1293]	0%	20%	0%	20%	0%	0%	0%	0%	0%	0%	0%	0%	0%	0%	0%	0%	0%	0%	20%	0%	pest or weed control at 125 g/ha (Kochia (Kochia scoparia) [10]): 0%; pest or weed control at 31 g/ha (Kochia (Kochia scoparia) [10]): 0%; plant injury at 125 g/ha [11]: 0%; plant injury at 31 g/ha [11]: 0%; pest or weed control at 125 g/ha [12]: 0%; pest or weed control at 31 g/ha [12]: 0%; pest or weed control at 125 g/ha [13]: 0%; pest or weed control at 31 g/ha [13]: 0%; pest or weed control at 125 g/ha [14]: 0%; pest or weed control at 31 g/ha [14]: 0%; pest or weed control at 125 g/ha [15]: 0%; pest or weed control at 31 g/ha [15]: 0%; pest or weed control at 250 g/ha [16]: 0%; pest or weed control at 250 g/ha [17]: 0%; pest or weed control at 250 g/ha [18]: 0%; pest or weed control at 250 g/ha (rice (Oryra sativa)): 0%
